In patent publication US8748466B2, “Isoxazole derivatives useful as antibacterial agents” (Pfizer Inc., priority 2011, dated 2014):
In brackets after ≈: the same amount, converted by molar mass. Read-outs that look alike come from different tables or passages of the source.

Tests used:
[1] = test system: Acinetobacter baumannii/haemolyticus: Multidrug-resistant clinical isolate AB-3167; experiment: MIC determination (CLSI), AB-3167; format: cell-based; conditions: overnight incubation, duplicate, lower of the two values reported
Protocol: (§1) The in vitro antibacterial activity of compounds described in the Examples was evaluated by minimum inhibitory concentration (MIC) testing according to Clinical and Laboratory Standards Institute (CLSI). See: Clinical and Laboratory Standards Institute. Methods for Dilution Antimicrobial Susceptibility Tests for Bacteria that Grow Aerobically; Approved Standard-Eighth Edition. CLSI document M7-A8 [ISBN 1-56238-689-1]. Clinical and Laboratory Standards Institute, 940 West Valley Road, Suite 1400, Wayne, Pa. 19087-1898 USA, 2006; also Clinical and Laboratory Standards Institute. Performance Standards for Antimicrobial Susceptibility Testing; Twentieth Informational Supplement. CLSI document M100-S20 [ISBN1-56238-716-2]. Clinical and Laboratory Standards Institute.
(§2) The MIC determination is a standard laboratory method for evaluating the antibacterial activity of a compound. The MIC represents the lowest drug concentration that inhibits visible growth of bacteria following overnight incubation. […] Typically, the drug concentration range is broken down into 2-fold increments (e.g., 0.06 μg/mL, 0.12 μg/mL. 0.25 μg/mL, 0.50 μg/mL, 1.0 μg/mL, etc.) and the various drug concentrations are all individually incubated overnight with approximately the same number of bacteria. The MIC is then determined by visually inspecting the drug effect at each concentration, and identifying the lowest drug concentration that has inhibited bacterial growth as compared to the drug free control. Typically, bacteria continue to grow at drug concentrations lower than the MIC and don't grow at concentrations at and above the MIC.
(§3) The MIC values described in Tables 4 and 5 below were derived from assays wherein each test compound was evaluated in duplicate. In cases where the duplicate values varied by 0-2-fold, the lower of the two values was reported below. Generally speaking, if the duplicate values varied by more than 2-fold, the assay was considered non-valid and was repeated until the variation between duplicate runs was 2-fold. In line with the CLSI guidelines referred to above, both control organisms and reference compounds were utilized in each MIC assay to provide proper quality control. MIC values generated with these control organisms and reference compounds were required to fall within a defined range for the assay to be considered valid and be included herein. Those skilled in the art will recognize that MIC values can and do vary from experiment to experiment. Generally speaking, it should be recognized that MIC values often vary +/−2-fold from experiment to experiment. While a single MIC is reported for each compound and each microorganism, the reader should not conclude that each compound was only tested once. Several of the compounds were subjected to multiple tests. The data reported in Tables 4 and 5 is reflective of the compound's relative activity and different MICs may have been generated on these occasions in line with the guidelines described above.
(§4) The following bacterial strains were used in these MIC determinations:
3) Acinetobacter baumannii/haemolyticus: Multidrug-resistant clinical isolate labeled as AB-3167 in Tables 4 and 5;

[2] = test system: Escherichia coli EC-1: VOGEL, mouse virulent; experiment: MIC determination (CLSI), EC-1; format: cell-based; conditions: read-out: EC-1 MIC
Protocol: as §1, §2, §3, §4
2) Escherichia coli EC-1: VOGEL, mouse virulent labeled as EC-1 in Tables 4 and 5;

[3] = test system: Pseudomonas aeruginosa UC12120 (mouse virulent); experiment: MIC determination (CLSI), PA-UC12120; format: cell-based; conditions: UC12120, read-out: PA-UC12120 MIC
Protocol: as §1, §2, §3, §4
1) Pseudomonas aeruginosa UC12120 (mouse virulent) labeled as PA-UC12120 in Tables 4 and 5;

[4] = target: T1, Pseudomonas aeruginosa LpxC enzyme (Pseudomonas aeruginosa, UniProt P47205); experiment: LpxC enzyme IC50 assay (PA LpxC enzyme IC50), BioTrove RapidFire mass spectrometry; format: biochemical
T1 construct: made in house; host or cells: E. coli
T1 sequence (P47205 1-303): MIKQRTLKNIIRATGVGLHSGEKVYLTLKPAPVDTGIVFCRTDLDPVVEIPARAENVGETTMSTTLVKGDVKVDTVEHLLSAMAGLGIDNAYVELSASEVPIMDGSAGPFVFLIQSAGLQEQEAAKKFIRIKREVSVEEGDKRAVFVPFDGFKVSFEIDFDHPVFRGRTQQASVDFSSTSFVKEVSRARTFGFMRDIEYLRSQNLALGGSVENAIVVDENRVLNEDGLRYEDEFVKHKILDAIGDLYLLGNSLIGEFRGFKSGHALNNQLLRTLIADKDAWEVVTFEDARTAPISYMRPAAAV
Protocol: In order to assess the compounds biological activity selected in vitro assays were conducted on selected compounds. One of the assays measured the compounds ability to disrupt the synthesis of lipopolysaccharide, LPS, which is a component of the outer membrane of Gram-negative bacteria. Disruption of this synthesis is lethal to the bacteria. The assay determined the compound's ability to inhibit LpxC, which is the first enzyme in the biosynthetic pathway for LPS (measured as IC50). Additionally, MICs (minimal inhibitory concentrations) were determined for several bacteria. The specific protocols are described below:
A) IC50 Assay LpxC Enzyme from P. aeruginosa Labeled as PA LpxC Enzyme IC50):
At the end of 1 hour, 5 ul of 1 N HCl was added to stop the enzyme reaction, the plates were centrifuged, and then processed with the BioTrove Rapidfire HTMS Mass Spectrometry System. A no-enzyme control was used in calculating the IC50 values from the percent conversion values.

[5] = P. aeruginosa LpxC enzyme 0.1 nM, 25° C., 1 hour, pH 8.0, read-out: PA:IC50

Row | SMILES | MIC [1] [µg/mL] | MIC [2] [µg/mL] | MIC [3] [µg/mL] | IC50 [4, 5] [nM] | IC50 [4] [nM]
1 | COc1ccc(-c2cc(CCC(C)(C(=O)NO)S(C)(=O)=O)on2)cc1OC (racemic) [Example 42, 4-[3-(3,4-dimethoxyphenyl)isoxazol-5-yl]-N-hydroxy-2-methyl-2-(methylsulfonyl)butanamide] | > 64 | > 64 | 64 (≈ 161 µM) | 38.6 | 
2 | CC(CCc1cc(-c2ncccc2F)no1)(C(=O)NO)S(C)(=O)=O (racemic) [Example 43, 4-[3-(3-fluoropyridin-2-yl)isoxazol-5-yl]-N-hydroxy-2-methyl-2-(methylsulfonyl)butanamide] | > 64 | 64 (≈ 179 µM) | 32 (≈ 89.5 µM) | > 100 | 
3 | CC(CCc1cc(-c2ccc(F)cc2)no1)(C(=O)NO)S(C)(=O)=O (racemic) [Example 44, 4-[3-(4-fluorophenyl)isoxazol-5-yl]-N-hydroxy-2-methyl-2-(methylsulfonyl)butanamide] | > 64 | 16 (≈ 44.9 µM) | 1 (≈ 2.81 µM) | 3.8 | 
4 | COc1ccc(-c2cc(CCC(C)(C(=O)NO)S(C)(=O)=O)on2)cc1 (racemic) [Example 47, N-hydroxy-4-[3-(4-methoxyphenyl)isoxazol-5-yl]-2-methyl-2-(methylsulfonyl)butanamide] | > 64 | 16 (≈ 43.4 µM) | 1 (≈ 2.71 µM) | 4.1 | 
5 | CC(CCc1cc(-c2ccc(N3CCOCC3)c(F)c2)no1)(C(=O)NO)S(C)(=O)=O (racemic) [Example 48, 4-[3-(3-fluoro-4-morpholin-4-ylphenyl)isoxazol-5-yl]-N-hydroxy-2-methyl-2-(methylsulfonyl)butanamide] | > 64 | 32 (≈ 72.5 µM) | 32 (≈ 72.5 µM) | 24.2 | 
6 | COc1ccccc1-c1cc(CCC(C)(C(=O)NO)S(C)(=O)=O)on1 (racemic) [Example 49, N-hydroxy-4-[3-(2-methoxyphenyl)isoxazol-5-yl]-2-methyl-2-(methylsulfonyl)butanamide] | > 64 | > 64 | 32 (≈ 86.9 µM) | 42.4 | 
7 | COc1cccc(-c2cc(CC[C@](C)(C(=O)NO)S(C)(=O)=O)on2)c1F [Example 1, (2R)-4-[3-(2-Fluoro-3-methoxyphenyl)isoxazol-5-yl]-N-hydroxy-2-methyl-2-(methylsulfonyl)butanamide] | > 64 | 4 (≈ 10.4 µM) | 2 (≈ 5.18 µM) |  | 5.32
8 | COc1ccc(-c2cc(CC[C@](C)(C(=O)NO)S(C)(=O)=O)on2)c(F)c1 [Example 3, (2R)-4-[3-(2-fluoro-4-methoxyphenyl)isoxazol-5-yl]-N-hydroxy-2-methyl-2-(methylsulfonyl)butanamide] | > 64 | 4 (≈ 10.4 µM) | 0.5 (≈ 1.29 µM) |  | 4.4
9 | C[C@@](CCc1cc(-c2ccccc2)no1)(C(=O)NO)S(C)(=O)=O [Example 4, (2R)-N-hydroxy-2-methyl-2-(methylsulfonyl)-4-(3-phenylisoxazol-5-yl)butanamide] | > 64 | 4 (≈ 11.8 µM) | 0.25 (≈ 0.739 µM) | 5.78 | 
10 | C[C@@](CCc1cc(-c2ccccc2)on1)(C(=O)NO)S(C)(=O)=O [Example 6, (2R)-N-hydroxy-2-methyl-2-(methylsulfonyl)-4-(5-phenylisoxazol-3-yl)butanamide] | > 64 | 8 (≈ 23.6 µM) | 0.25 (≈ 0.739 µM) |  | 0.51
